# Results as given in patent US20050038058A1, “Novel compounds and methods for therapy” (Institute of Organic Chemistry and Biochemistry, priority 2001, published 2005).
# Key:
# [1] = tested on: monocyte/macrophages (M/M); assay: Cell viability in monocyte/macrophages (M/M); type: cell-based, human; conditions: reduction of cell viability; Table 2
# [2] = tested on: CEM cells; assay: Inhibition of CEM cell growth (cytostatic activity); type: cell-based
# Outline: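 MT-4 cells (5×10^4/well) exposed to compound dilutions for 5 days at 37 °C; CC50 = concentration cutting living cells by 50%, counted microscopically with trypan blue exclusion. CEM cytostatic CC50 defined likewise, by a previously described method.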
# [3] = tested on: HIV-1(IIIB); assay: HIV-1(IIIB)-induced cytopathicity in CEM cell cultures; type: cell-based
# Source text: Viruses. The origins of MSV, HIV type 1 (HIV-1) (strain IIIB and Ba-L), HIV-2 (strain ROD) and FIV (strain Petaluma) have been described previously (Balzarini et al., AIDS 5: 21-28, 1991; De Clercq et al., Proc. Soc. Exp. Biol. Med. 137:590-594, 1971; Egberink et al., Proc. Natl. Acad. Sci. 87:3087-3091, 1990; Hartmann et al., Antiviral Chem. Chemother. 5:13-19, 1994; Popovic et al., Science 224:497-500, 1984). HIV-1(IIIB) and HIV-2(ROD) stocks were obtained from supernatants of virus-infected MT-4 cell cultures. HIV-1BaL was expanded in human primary M/M, whose supernatants were collected, filtered and stored at −80° C. before use. Characteristics of viral stocks used for this study were 2.1×10^8 HIV-RNA genomes/ml (corresponding to 35 ng of p24 antigen) and 5,000 tissue culture infectious doses 50% per ml (TCID50/ml) as assessed by virus titration in other primary M/M cultures. The isolation and characterization of the clinical HIV-1 isolates L1S, L6S and L6S/PMEA has been reported (Thormar et al., Proc. Natl. Acad. Sci. USA 93:3283-3287, 1995; Van Laethem et al., AIDS 15:553-561, 2001). […] HIV-1/L6S/PMEA is the clinical isolate HIV-1/L6S that has been isolated after culturing the virus for 11 passages in the presence of increasing concentrations of PMEA (adefovir).
# (§1) In vitro antiviral assays. The activity against HIV-1- and HIV-2-induced cytopathicity was examined in MT-4 cell cultures at day 5 post infection and based on the determination of cell viability by trypan blue dye staining or in CEM cell cultures at day 4 to 5 post infection and based on the microscopical examination of virus-induced giant cell formation. HIV-1 and HIV-2 were added at 100 CCID50 to the cell cultures.
# [4] = tested on: CrFK cells; assay: Toxicity in CrFK cells; type: cell-based, feline; conditions: Table 2
# [5] = tested on: HIV-1(IIIB); assay: HIV-1(IIIB) p24 antigen production in PBL (PHA-stimulated PBMC); type: cell-based; conditions: for EC50: Human immunodeficiency virus 1, IIIB, PBMC
# Procedure: Peripheral blood mononuclear cells (PBMC) from healthy donors were isolated by density centrifugation (Lymphoprep; Nycomed Pharma, AS Diagnostics, Oslo, Norway) and stimulated with phytohemagglutin (PHA) (Sigma Chemical Co., Bornem, Belgium) for 3 days. The activated cells (PHA-stimulated blasts) were washed with PBS and viral infections were done as described by the AIDS clinical trial group protocols. Briefly, PBMCs (2×10^5/200 well) were plated in the presence of serial dilutions of the test compound and were infected with HIV stocks at 1000 CCID50 per mL. At day 4 post-infection, 125 μl of the supernatant of the infected cultures was removed and replaced with 150 μl of fresh medium containing the test compounds at the appropriate concentrations. At 7 days after plating the cells, p24 antigen was detected in the culture supernatant by an enzyme-linked immunosorbent assay (NEN, Paris, France).
# [6] = tested on: PBL; assay: Cell viability in PBL; type: cell-based; conditions: reduction of cell viability; Table 2
# [7] = tested on: MT-4 cells; assay: MT-4 cell toxicity (trypan blue exclusion); type: cell-based; conditions: reduction of cell viability; Table 2
# Procedure: Cytostatic and antimetabolic effect of acyclic nucleoside phosphonates in vitro. The assays to examine the inhibition of CEM cell growth by the test compounds have been described previously (Balzarini et al., AIDS 5:21-28, 1991). The 50% cytostatic concentration (CC50) was defined as the concentration of compound that reduced the number of living cells by 50% . To measure MT-4 cell toxicity of the test compounds, 5×10^4 MT-4 cells were incubated in the wells of 96-well microplates in the presence or absence of different concentrations of the test compounds for 5 days at 37° C. The CC50 was then calculated from the number of living cells counted under a microscope by the trypan blue exclusion method.
# [8] = Cell viability in monocyte/macrophages (M/M); type: cell-based, human; conditions: human
# [9] = tested on: HIV-1(IIIB) strains containing L100I, K103N, Y181C and Y188H mutations in the RT; assay: HIV-1(IIIB) strains with NNRTI-specific RT mutations in CEM cell cultures; type: cell-based; conditions: data not shown
# Procedure: as §1
# [10] = Cell viability in PBL; type: cell-based; conditions: human, reduction of cell viability, Table 2
# [11] = tested on: HSV-2 (G); assay: Antiviral activity, HSV-2 (G), Table 1a; type: cell-based
# [12] = tested on: HSV-1 TK- VMW 1837; assay: Antiviral activity, HSV-1 TK- VMW 1837, Table 1a; type: cell-based
# [13] = tested on: VZV TK + OKA; assay: Antiviral activity, VZV TK+ OKA, Table 1a; type: cell-based
# [14] = tested on: CMV Davis; assay: Antiviral activity, CMV Davis, Table 1a; type: cell-based
# [15] = tested on: VZV TK + YS; assay: Antiviral activity, VZV TK+ YS, Table 1a; type: cell-based
# [16] = tested on: HSV-1 (KOS); assay: Antiviral activity, HSV-1 (KOS), Table 1a; type: cell-based
# [17] = tested on: HIV-2; assay: Antiviral activity, HIV-2, Table 1a; type: cell-based
# [18] = tested on: HIV-1
# [19] = tested on: CMV AD-169; assay: Antiviral activity, CMV AD-169, Table 1a; type: cell-based
# [20] = tested on: VZV TK − 07/1; assay: Antiviral activity, VZV TK- 07/1, Table 1a; type: cell-based
# [21] = tested on: MSV; assay: Antiviral activity, MSV, Table 1a; type: cell-based
# [22] = tested on: VZV TK − YS/R; assay: Antiviral activity, VZV TK- YS/R, Table 1a; type: cell-based
# [23] = 50% cytostatic concentration, CEM cell proliferation, Table 1
# [24] = inhibition of cell proliferation, Table 2
# [25] = HIV-1 (IIIB) in CEM, no addition, Table 3
# [26] = HIV-1 (IIIB) in CEM, Ade 100 μM
# [27] = HIV-1 (IIIB) in CEM, Ado 400 μM
# [28] = HIV-1 (IIIB) in CEM, dThd 10 μM
# [29] = HIV-1(IIIB)-induced cytopathicity in CEM cell cultures, Table 1
# [30] = giant cell formation, mean ±SD of 2 to 4 experiments, Table 2
# [31] = Human immunodeficiency virus 1, CCRF-CEM, HIV-1 (IIIB) in CEM, no addition, Table 3, read-out: EC50 as such
# [32] = Human immunodeficiency virus 1, CCRF-CEM, HIV-1 (IIIB) in CEM, Ade 100 μM, read-out: EC50 upon addition of Ade (100 μM)
# [33] = Human immunodeficiency virus 1, CCRF-CEM, HIV-1 (IIIB) in CEM, Ado 400 μM, read-out: EC50 upon addition of Ado (400 μM)
# [34] = Human immunodeficiency virus 1, CCRF-CEM, HIV-1 (IIIB) in CEM, Guo 10 μM, read-out: EC50 upon addition of Guo (10 μM)
# [35] = Human immunodeficiency virus 1, CCRF-CEM, HIV-1 (IIIB) in CEM, dCyd 1 mM, read-out: EC50 upon addition of dCyd (1 mM)
# [36] = Human immunodeficiency virus 1, CCRF-CEM, HIV-1 (IIIB) in CEM, dThd 10 μM, read-out: EC50 upon addition of dThd (10 μM)
# [37] = Human immunodeficiency virus 1, CCRF-CEM, HIV-1(IIIB)-induced cytopathicity in CEM cell cultures, Table 1, read-out: EC50 HIV-1 (CEM)
# [38] = Human immunodeficiency virus 1, IIIB, CCRF-CEM, giant cell formation, mean ±SD of 2 to 4 experiments, Table 2, read-out: EC50 HIV-1 (IIIB) (CEM)
# [39] = p24 antigen production, Table 2, read-out: EC50 HIV-1 (IIIB) (PBL)
# [40] = read-out: EC50 HIV-1(IIIB) in PBL
Structure (SMILES),CC50 M/M [1],"CC50 (CEM) [2, 23]","CC50 (CEM) [2, 24]","EC50 as such [3, 25]","EC50 upon addition of Ade (100 μM) [3, 26]","EC50 upon addition of Ado (400 μM) [3, 27]","EC50 upon addition of Guo (10 μM) ([3]; HIV-1 (IIIB) in CEM, Guo 10 μM)","EC50 upon addition of dCyd (1 mM) ([3]; HIV-1 (IIIB) in CEM, dCyd 1 mM)","EC50 upon addition of dThd (10 μM) [3, 28]","EC50 HIV-1 (CEM) [3, 29]","EC50 HIV-1 (IIIB) (CEM) [3, 30]","EC50 [3, 31]","EC50 [3, 32]","EC50 [3, 33]","EC50 [3, 34]","EC50 [3, 35]","EC50 [3, 36]","EC50 [3, 37]","EC50 [3, 38]","Activity against NNRTI-specific mutant virus strains, in words [9]",further results
"C[C@H](Cn1cnc2c(N)ncnc21)OCP(=O)(O)O [(R)-PMPA, (R)-9-[(2-phosphonomethoxy)-propyl]adenine, reference compound]",>100 mg/L,125 mg/L,125 ± 26 mg/L,0.57 ± 0.26 mg/L,1.6 ± 1.6 mg/L,0.46 ± 0.23 mg/L,0.43 ± 0.0 mg/L,0.53 ± 0.26 mg/L,0.43 ± 0.0 mg/L,0.36 mg/L,0.36 ± 0.24 mg/L,,,,,,,,,,"CC50 CrFK [4]: >100 mg/L; EC50 HIV-1(IIIB) in PBL [5]: 0.33 mg/L; EC50 HIV-1 (IIIB) (PBL) ([5]; p24 antigen production, Table 2): 0.09 ± 0.03 mg/L; CC50 PBL [6]: >100 mg/L; CC50 MT-4 [7]: 72 ± 12 mg/L"
"Nc1cc(OCCOCP(=O)(O)O)nc(N)n1 [Compound 1, 2,4-diamino-6-[2-(phosphonomethoxy)ethoxy]pyrimidine]",,,,,,,,,,,,0.77 ± 0.25 mg/L,0.26 ± 0.16 mg/L,0.63 ± 0.29 mg/L,0.65 ± 0.21 mg/L,0.55 ± 0.35 mg/L,0.35 ± 0.07 mg/L,0.8 mg/L,0.9 ± 0.4 mg/L,retained full activity,"CC50 [8]: > 100 mg/L; EC50 [5, 39]: 0.07 ± 0.02 mg/L; EC50 [5, 40]: 0.07 mg/L; CC50 ([10]; PHA-stimulated peripheral blood mononuclear cells (PBL)): 2.2 ± 0.8 mg/L"
"Nc1cc(SCCOCP(=O)(O)O)nc(N)n1 [Compound 2, 2,4-diamino-6-{[2-(phosphonomethoxy)ethyl]-sulfanyl}pyrimidine]",,,,,,,,,,,,1.9 ± 0.75 mg/L,3.3 ± 3.2 mg/L,4.4 ± 2.8 mg/L,1.9 ± 0.49 mg/L,2.1 ± 1.7 mg/L,1.4 ± 0.21 mg/L,5.5 mg/L,4.6 ± 3.1 mg/L,retained full activity,
"C[C@H](COc1cc(N)nc(N)n1)OCP(=O)(O)O [Compound 11, 2,4-diamino-6-(R)-[2-(phosphonomethoxy)propoxy]pyrimidine]",>100 mg/L,62 mg/L,62 ± 25 mg/L,1.2 ± 0.25 mg/L,0.35 ± 0.17 mg/L,1.5 ± 0.70 mg/L,0.77 ± 0.38 mg/L,1.1 ± 0.51 mg/L,0.83 ± 0.35 mg/L,1.8 mg/L,1.9 ± 0.5 mg/L,,,,,,,,,retained full activity,"Antiviral Activity EC50 HSV-2 (G) [11]: 48 mg/L; Antiviral Activity EC50 HSV-1 TK- VMW 1837 [12]: 9.6 mg/L; CC50 for CEM cells [2]: around 60 μg/mL; Antiretroviral (anti-HIV-1) activity in CEM cell cultures, in words [3]: markedly more inhibitory; Antiviral Activity EC50 VZV TK + OKA [13]: 3.8 mg/L; CC50 CrFK [4]: >100 mg/L; Antiviral Activity EC50 CMV Davis [14]: >50 mg/L; EC50 HIV-1(IIIB) in PBL [5]: 0.12 mg/L; Antiviral Activity EC50 VZV TK + YS [15]: 5.9 mg/L; Antiviral Activity EC50 HSV-1 (KOS) [16]: 16 mg/L; Antiviral Activity EC50 HIV-2 [17]: 1.3 mg/L; Antiviral Activity EC50 HIV-1 [18]: 1.9 mg/L; Antiviral Activity EC50 CMV AD-169 [19]: >50 mg/L; Antiviral Activity EC50 VZV TK − 07/1 [20]: 6.3 mg/L; Antiviral Activity EC50 MSV [21]: 0.05 mg/L; CC50 PBL [6]: 9.6 ± 2.5 mg/L; Antiviral Activity EC50 VZV TK − YS/R [22]: 5.7 mg/L; CC50 MT-4 [7]: ≧100 μg/ml"
"Nc1ncnc2c1ncn2CCOCP(=O)(O)O [PMEA, 9-[(2-phosphono-methoxy)ethyl]adenine, reference compound]",,,,,,,,,,,,0.94 ± 0.24 mg/L,1.9 ± 1.3 mg/L,1.6 ± 0.4 mg/L,1 ± 0.8 mg/L,2.1 ± 0.19 mg/L,1.4 ± 0.4 mg/L,0.96 mg/L,0.96 ± 0.24 mg/L,,"CC50 ([8]; reduction of cell viability, Table 2, read-out: CC50 M/M): > 100 mg/L; EC50 [5, 39]: 0.55 ± 0.41 mg/L; EC50 [5, 40]: 1.9 mg/L; CC50 [10]: 1.7 ± 0.4 mg/L"
